How the values were obtained:
Assay in all cases: KinomeScan 96-kinase panel
Type in all cases: binding
Conditions in all cases: compound concentration 1000 nM
[1] = biological target: ABL1(T315I)-phosphorylated (Homo sapiens (Human), UniProt P00519, T315I)
Description: (§1) The details of the screening technology were described in Fabian, M. A. et al, Nat., Biotechnol. 2005, 23, 329 and Karaman, M. W. et al, Nat., Biotechnol. 2008, 26, 127. From the above representative results, it can be seen that the compounds of the present invention have potent inhibitory activities on kinases including ALK, AXL, VEGFR2, PDGFR-α, PDGFR-β, c-KIT, Flt3, MEK1, MEK2, CSF1R, EPHA2, EPHA2, MKNK2, SRC, TIE2 and their mutants. Accordingly, the compounds of the present invention can be used for the treatment of diseases caused by abnormal activities of these kinases, e.g., cancer, psoriasis, hepatic cirrhosis, diabetes, diseases involving angiogenesis, eye diseases, immune system diseases, cardiovascular diseases, and so forth.

AKT1 = AKT1 (Homo sapiens (Human), UniProt P31749)
Description: as §1

BMPR2 = BMPR2 (Homo sapiens (Human), UniProt Q13873)
Description: as §1

BRAF(V600E) = BRAF(V600E) (Homo sapiens (Human), UniProt P15056, V600E)
Description: as §1

CDK3 = CDK3 (Homo sapiens (Human), UniProt Q00526)
Sequence of CDK3 (Q00526 whole entry): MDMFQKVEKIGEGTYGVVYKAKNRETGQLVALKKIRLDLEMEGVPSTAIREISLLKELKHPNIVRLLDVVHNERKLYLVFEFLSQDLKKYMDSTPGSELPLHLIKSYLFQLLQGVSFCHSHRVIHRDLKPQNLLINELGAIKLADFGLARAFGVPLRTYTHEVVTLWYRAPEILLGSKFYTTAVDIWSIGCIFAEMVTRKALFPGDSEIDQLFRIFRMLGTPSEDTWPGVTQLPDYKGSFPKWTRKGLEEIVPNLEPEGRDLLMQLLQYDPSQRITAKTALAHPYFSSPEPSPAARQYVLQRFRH
Description: as §1

CDK9 = CDK9 (Homo sapiens (Human), UniProt P50750)
Description: as §1

CHEK1 = CHEK1 (Homo sapiens (Human), UniProt O14757)
Description: as §1

CSF1R = CSF1R (Homo sapiens (Human), UniProt P07333)
Description: as §1

EGFR = EGFR (Homo sapiens (Human), UniProt P00533)
Description: as §1

EPHA2 = EPHA2 (Homo sapiens (Human), UniProt P29317)
Description: as §1

ERK1 = ERK1 (Homo sapiens (Human), UniProt P27361)
Description: as §1

FAK = FAK (Homo sapiens (Human), UniProt Q05397)
Description: as §1

FGFR3 = FGFR3 (Homo sapiens (Human), UniProt P22607)
Description: as §1

FLT3 = FLT3 (Homo sapiens (Human), UniProt P36888)
Description: as §1

GSK3B = GSK3B (Homo sapiens (Human), UniProt P49841)
Sequence of GSK3B (P49841 whole entry): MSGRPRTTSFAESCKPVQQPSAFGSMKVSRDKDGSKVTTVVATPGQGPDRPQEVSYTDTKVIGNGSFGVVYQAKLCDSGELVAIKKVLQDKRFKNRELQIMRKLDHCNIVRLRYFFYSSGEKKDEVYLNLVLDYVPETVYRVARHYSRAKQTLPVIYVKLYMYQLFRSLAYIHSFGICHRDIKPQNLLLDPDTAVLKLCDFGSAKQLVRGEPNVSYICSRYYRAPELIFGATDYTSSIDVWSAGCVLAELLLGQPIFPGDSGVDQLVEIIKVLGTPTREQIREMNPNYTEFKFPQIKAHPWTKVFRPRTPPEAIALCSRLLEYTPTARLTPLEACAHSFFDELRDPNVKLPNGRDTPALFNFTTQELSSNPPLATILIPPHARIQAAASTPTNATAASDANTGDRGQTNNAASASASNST
Description: as §1

IGF1R = IGF1R (Homo sapiens (Human), UniProt P08069)
Sequence of IGF1R (P08069 31-1367): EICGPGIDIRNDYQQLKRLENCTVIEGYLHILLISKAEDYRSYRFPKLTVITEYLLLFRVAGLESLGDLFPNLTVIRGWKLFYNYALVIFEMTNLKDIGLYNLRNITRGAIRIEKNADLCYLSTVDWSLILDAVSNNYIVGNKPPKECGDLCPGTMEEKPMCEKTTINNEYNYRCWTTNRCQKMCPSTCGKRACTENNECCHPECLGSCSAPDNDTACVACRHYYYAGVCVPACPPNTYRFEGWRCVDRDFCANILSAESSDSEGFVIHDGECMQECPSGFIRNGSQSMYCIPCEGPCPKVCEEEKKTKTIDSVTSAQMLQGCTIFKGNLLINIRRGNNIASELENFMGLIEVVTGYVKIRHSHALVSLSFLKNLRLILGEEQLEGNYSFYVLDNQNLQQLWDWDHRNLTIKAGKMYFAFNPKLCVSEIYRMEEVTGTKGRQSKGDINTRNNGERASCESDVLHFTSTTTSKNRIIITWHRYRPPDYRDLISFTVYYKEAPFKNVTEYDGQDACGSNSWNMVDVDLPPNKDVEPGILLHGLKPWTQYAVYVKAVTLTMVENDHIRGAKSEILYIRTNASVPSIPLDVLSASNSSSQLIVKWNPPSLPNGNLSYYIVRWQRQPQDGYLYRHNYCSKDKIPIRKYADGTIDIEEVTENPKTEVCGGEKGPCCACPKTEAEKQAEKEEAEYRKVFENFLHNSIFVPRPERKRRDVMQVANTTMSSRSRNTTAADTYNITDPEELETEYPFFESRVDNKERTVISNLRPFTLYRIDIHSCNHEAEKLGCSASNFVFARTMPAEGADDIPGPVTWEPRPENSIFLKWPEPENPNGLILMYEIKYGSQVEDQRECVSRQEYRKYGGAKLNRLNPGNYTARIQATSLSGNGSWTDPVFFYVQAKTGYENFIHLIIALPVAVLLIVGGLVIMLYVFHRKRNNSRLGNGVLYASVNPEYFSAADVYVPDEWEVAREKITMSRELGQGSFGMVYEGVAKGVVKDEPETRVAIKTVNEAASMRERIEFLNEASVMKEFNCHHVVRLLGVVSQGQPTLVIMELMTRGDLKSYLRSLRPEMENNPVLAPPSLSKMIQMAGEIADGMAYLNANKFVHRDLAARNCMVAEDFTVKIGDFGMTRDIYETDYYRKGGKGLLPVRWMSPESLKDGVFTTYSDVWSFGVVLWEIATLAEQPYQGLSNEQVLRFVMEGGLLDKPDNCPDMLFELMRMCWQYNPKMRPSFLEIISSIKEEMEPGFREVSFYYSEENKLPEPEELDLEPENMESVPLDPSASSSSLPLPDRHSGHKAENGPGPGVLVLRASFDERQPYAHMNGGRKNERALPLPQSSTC
Description: as §1

INSR = INSR (Homo sapiens (Human), UniProt P06213)
Description: as §1

JNK3 = JNK3 (Homo sapiens (Human), UniProt P53779)
Description: as §1

KIT (V559D, T670I) = KIT (V559D, T670I) (Homo sapiens (Human), UniProt P10721, T670I/V559D)
Description: as §1

MARK3 = MARK3 (Homo sapiens (Human), UniProt P27448)
Description: as §1

MEK1 = MEK1 (Homo sapiens (Human), UniProt Q02750)
Description: as §1

PAK2 = PAK2 (Homo sapiens (Human), UniProt Q13177)
Description: as §1

PDGFRA = PDGFRA (Homo sapiens (Human), UniProt P16234)
Sequence of PDGFRA (P16234 24-1089): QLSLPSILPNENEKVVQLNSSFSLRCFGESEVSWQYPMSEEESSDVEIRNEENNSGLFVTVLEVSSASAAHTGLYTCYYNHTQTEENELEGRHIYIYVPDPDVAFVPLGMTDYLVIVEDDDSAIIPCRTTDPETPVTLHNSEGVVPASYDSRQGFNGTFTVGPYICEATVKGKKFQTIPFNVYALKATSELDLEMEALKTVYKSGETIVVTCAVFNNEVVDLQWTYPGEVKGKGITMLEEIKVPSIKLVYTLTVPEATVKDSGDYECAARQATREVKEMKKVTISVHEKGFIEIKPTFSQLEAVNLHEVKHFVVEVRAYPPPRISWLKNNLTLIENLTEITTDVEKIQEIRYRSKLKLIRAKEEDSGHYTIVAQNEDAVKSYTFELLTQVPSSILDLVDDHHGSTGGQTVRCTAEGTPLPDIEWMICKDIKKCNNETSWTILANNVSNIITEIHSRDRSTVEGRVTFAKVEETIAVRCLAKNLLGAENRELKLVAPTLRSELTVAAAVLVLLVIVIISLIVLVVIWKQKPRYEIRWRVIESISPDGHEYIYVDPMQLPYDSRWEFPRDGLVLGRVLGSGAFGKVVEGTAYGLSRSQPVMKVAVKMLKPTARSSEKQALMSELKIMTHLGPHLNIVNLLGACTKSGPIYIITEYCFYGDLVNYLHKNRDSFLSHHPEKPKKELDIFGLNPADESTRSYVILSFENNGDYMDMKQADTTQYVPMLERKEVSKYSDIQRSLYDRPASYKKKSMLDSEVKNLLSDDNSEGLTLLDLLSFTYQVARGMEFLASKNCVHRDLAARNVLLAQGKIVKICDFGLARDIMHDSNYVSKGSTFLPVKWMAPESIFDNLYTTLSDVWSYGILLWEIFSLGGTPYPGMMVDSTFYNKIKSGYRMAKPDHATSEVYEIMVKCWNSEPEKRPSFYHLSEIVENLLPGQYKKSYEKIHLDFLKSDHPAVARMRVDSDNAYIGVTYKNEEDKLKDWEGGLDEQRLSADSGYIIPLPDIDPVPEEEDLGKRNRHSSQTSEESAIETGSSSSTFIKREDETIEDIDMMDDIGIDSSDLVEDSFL
Description: as §1

PIK3CA = PIK3CA (Homo sapiens (Human), UniProt P42336)
Description: as §1

PIK3CG = PIK3CG (Homo sapiens (Human), UniProt P48736)
Description: as §1

PIM3 = PIM3 (Homo sapiens (Human), UniProt Q86V86)
Description: as §1

PLK1 = PLK1 (Homo sapiens (Human), UniProt P53350)
Sequence of PLK1 (P53350 whole entry): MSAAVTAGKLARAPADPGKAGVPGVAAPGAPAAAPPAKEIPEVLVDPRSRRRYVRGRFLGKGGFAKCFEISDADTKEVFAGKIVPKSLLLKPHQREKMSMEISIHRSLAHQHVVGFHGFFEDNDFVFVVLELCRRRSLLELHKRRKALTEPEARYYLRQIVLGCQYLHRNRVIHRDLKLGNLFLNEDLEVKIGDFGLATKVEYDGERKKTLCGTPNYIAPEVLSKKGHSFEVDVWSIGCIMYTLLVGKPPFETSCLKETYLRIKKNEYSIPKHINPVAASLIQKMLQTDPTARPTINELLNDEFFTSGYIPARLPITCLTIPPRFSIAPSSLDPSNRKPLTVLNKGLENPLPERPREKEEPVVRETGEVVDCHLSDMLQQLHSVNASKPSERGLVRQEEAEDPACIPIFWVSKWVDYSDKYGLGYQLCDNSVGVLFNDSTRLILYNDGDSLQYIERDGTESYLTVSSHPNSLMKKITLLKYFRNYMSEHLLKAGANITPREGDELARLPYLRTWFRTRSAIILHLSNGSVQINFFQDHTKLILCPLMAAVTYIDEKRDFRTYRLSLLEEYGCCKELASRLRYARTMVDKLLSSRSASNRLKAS
Description: as §1

PLK4 = PLK4 (Homo sapiens (Human), UniProt O00444)
Description: as §1

RAF1 = RAF1 (Homo sapiens (Human), UniProt P04049)
Description: as §1

RET = RET (Homo sapiens (Human), UniProt P07949)
Description: as §1

RIOK2 = RIOK2 (Homo sapiens (Human), UniProt Q9BVS4)
Description: as §1

SNARK = SNARK (Homo sapiens (Human), UniProt Q9H093)
Description: as §1

SRPK3 = SRPK3 (Homo sapiens (Human), UniProt Q9UPE1)
Sequence of SRPK3 (Q9UPE1 whole entry): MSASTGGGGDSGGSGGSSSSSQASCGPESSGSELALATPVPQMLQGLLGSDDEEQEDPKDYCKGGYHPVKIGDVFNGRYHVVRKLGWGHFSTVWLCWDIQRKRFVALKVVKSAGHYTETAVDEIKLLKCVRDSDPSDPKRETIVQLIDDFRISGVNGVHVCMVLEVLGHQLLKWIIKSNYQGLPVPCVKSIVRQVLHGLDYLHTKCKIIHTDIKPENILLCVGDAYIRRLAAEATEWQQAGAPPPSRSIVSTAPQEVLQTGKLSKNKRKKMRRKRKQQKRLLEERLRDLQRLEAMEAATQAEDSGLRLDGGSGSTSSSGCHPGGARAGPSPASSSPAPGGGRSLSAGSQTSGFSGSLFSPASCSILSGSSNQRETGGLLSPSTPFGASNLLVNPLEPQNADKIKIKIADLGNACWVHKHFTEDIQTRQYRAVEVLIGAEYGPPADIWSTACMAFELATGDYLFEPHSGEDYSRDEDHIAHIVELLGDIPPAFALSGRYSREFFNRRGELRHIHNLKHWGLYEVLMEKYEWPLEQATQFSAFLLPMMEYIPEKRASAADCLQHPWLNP
Description: as §1

TIE2 = TIE2 (Homo sapiens (Human), UniProt Q02763)
Description: as §1

TRKA = TRKA (Homo sapiens (Human), UniProt P04629)
Sequence of TRKA (P04629 33-796): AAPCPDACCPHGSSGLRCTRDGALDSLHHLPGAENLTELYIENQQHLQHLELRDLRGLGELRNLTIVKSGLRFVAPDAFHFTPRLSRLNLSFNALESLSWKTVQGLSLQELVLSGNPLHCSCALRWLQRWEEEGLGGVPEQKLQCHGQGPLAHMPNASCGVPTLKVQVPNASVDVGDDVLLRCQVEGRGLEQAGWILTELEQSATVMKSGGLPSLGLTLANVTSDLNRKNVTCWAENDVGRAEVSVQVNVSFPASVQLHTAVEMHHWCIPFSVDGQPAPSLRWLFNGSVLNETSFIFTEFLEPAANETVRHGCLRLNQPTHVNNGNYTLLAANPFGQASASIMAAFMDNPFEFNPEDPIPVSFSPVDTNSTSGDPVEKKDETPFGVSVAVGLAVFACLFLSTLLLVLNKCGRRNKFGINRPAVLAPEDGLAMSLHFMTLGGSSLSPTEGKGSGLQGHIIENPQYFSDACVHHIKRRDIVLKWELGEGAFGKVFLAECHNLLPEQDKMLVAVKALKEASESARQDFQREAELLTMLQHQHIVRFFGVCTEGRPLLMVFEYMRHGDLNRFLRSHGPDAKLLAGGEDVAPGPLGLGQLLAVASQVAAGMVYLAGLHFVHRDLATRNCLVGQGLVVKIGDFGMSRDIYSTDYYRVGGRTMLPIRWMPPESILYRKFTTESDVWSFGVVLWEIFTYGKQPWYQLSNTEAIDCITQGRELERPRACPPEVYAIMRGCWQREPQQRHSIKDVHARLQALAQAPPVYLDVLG
Description: as §1

TSSK1B = TSSK1B (Homo sapiens (Human), UniProt Q9BXA7)
Description: as §1

ULK2 = ULK2 (Homo sapiens (Human), UniProt Q8IYT8)
Description: as §1

YANK3 = YANK3 (Homo sapiens (Human), UniProt Q86UX6)
Description: as §1

For `COc1cc2c(Oc3ccc(NC(=O)C4(C(=O)Nc5ccc(F)cc5)CC4)cc3F)ccnc2cc1OCCCCCC(=O)NO` [Example 13, N1′-[3-fluoro-4-[[7-[6-(hydroxyamino)-6-oxohexyloxy]-6-methoxy-4-quinolyl]oxy]phenyl]-N1-(4-fluorophenyl)cyclopropane-1,1-dicarboxamide], the “% Ctrl@1000 nM” value [1] was 19 % Ctrl, the “% Ctrl@1000 nM” value (AKT1) was 100 % Ctrl and the “% Ctrl@1000 nM” value (BMPR2) was 100 % Ctrl. The “% Ctrl@1000 nM” value (BRAF(V600E)) was 88 % Ctrl, the “% Ctrl@1000 nM” value (CDK3) was 100 % Ctrl and the “% Ctrl@1000 nM” value (CDK9) was 67 % Ctrl. For the same molecule, the “% Ctrl@1000 nM” value (CHEK1) was 96 % Ctrl, the “% Ctrl@1000 nM” value (CSF1R) was 0 % Ctrl and the “% Ctrl@1000 nM” value (EGFR) was 6.8 % Ctrl. For the same molecule, the “% Ctrl@1000 nM” value (EPHA2) was 0.9 % Ctrl, the “% Ctrl@1000 nM” value (ERK1) was 94 % Ctrl and the “% Ctrl@1000 nM” value (FAK) was 12 % Ctrl. The “% Ctrl@1000 nM” value (FGFR3) was 64 % Ctrl, the “% Ctrl@1000 nM” value (FLT3) was 0.85 % Ctrl and the “% Ctrl@1000 nM” value (GSK3B) was 100 % Ctrl. For the same molecule, the “% Ctrl@1000 nM” value (IGF1R) was 21 % Ctrl, the “% Ctrl@1000 nM” value (INSR) was 6 % Ctrl and the “% Ctrl@1000 nM” value (JNK3) was 100 % Ctrl. The “% Ctrl@1000 nM” value (KIT (V559D, T670I)) was 0.15 % Ctrl, the “% Ctrl@1000 nM” value (MARK3) was 73 % Ctrl and the “% Ctrl@1000 nM” value (MEK1) was 0.95 % Ctrl. The “% Ctrl@1000 nM” value (PAK2) was 76 % Ctrl, the “% Ctrl@1000 nM” value (PDGFRA) was 1.8 % Ctrl and the “% Ctrl@1000 nM” value (PIK3CA) was 100 % Ctrl. The “% Ctrl@1000 nM” value (PIK3CG) was 66 % Ctrl, the “% Ctrl@1000 nM” value (PIM3) was 100 % Ctrl and the “% Ctrl@1000 nM” value (PLK1) was 100 % Ctrl. For the same molecule, the “% Ctrl@1000 nM” value (PLK4) was 0.55 % Ctrl, the “% Ctrl@1000 nM” value (RAF1) was 53 % Ctrl and the “% Ctrl@1000 nM” value (RET) was 0 % Ctrl. For the same molecule, the “% Ctrl@1000 nM” value (RIOK2) was 100 % Ctrl, the “% Ctrl@1000 nM” value (SNARK) was 91 % Ctrl and the “% Ctrl@1000 nM” value (SRPK3) was 76 % Ctrl. The “% Ctrl@1000 nM” value (TIE2) was 0.55 % Ctrl, the “% Ctrl@1000 nM” value (TRKA) was 0.5 % Ctrl and the “% Ctrl@1000 nM” value (TSSK1B) was 50 % Ctrl. For the same molecule, the “% Ctrl@1000 nM” value (ULK2) was 100 % Ctrl and the “% Ctrl@1000 nM” value (YANK3) was 84 % Ctrl.

Reference: US9186318B2, “Quinolyl-containing hydroxamic acid compound and preparation method thereof, and pharmaceutical composition containing this compound and use thereof” (Beijing Konruns Pharmaceutical Co., Ltd, priority 2011, dated 2015)
